{
  "source": "patent US9663480B2",
  "about": "“BIS-MMF derivatives” (RATIOPHARM GMBH, priority 2013, dated 2017)",
  "test": "Kinetics of MMF-release during incubation in intestinal fluid from the minipig (LC-MS quantification of MMF)",
  "type": "in vitro ADME, Gottingen SPF minipig",
  "details": "diluted small intestinal fluid (1/20 v/v with 50 mM KH2PO4, pH 6.8), 37° C., samples at 0-120 min; FIG. 1; DMF as reference",
  "method": "Investigation and Comparision of the Kinetics of MMF-Release of the Different Compounds of the Present Invention and DMF During Incubation in Intestinal Fluid from the Minipig\nIntestinal fluid samples were prepared at CiToxLAB Scantox A/S. The samples were taken from 1 female Gottingen SPF minipig from CiToxLAB Scantox A/S standard stock, originally obtained from Ellegaard Gottingen Minipigs A/S, DK-4261 Dalmose, Denmark. The minipig was 10 months old and the body weight was 21 kg. The minipig was identified by an individual number tagged to the pinna of one ear (animal number is documented in the raw data).\nThe minipig was fasted for approximately 28 hours before sampling of intestinal fluid. […]\nIncubations were continued and in case the result of analysis of the 120 min indicated the presence of remaining intact MMF prodrug, additional samples were taken (t=360 or 420 min and at 1,260 or 1,320 min) and analysed.\nThe concentration/peak area ratio data pairs were subjected to regression analysis with 1/x weighting and the resulting calibration equation was used to quantify the MMF content in incubation samples.",
  "data": [
    {"smiles": "COC(=O)/C=C/C(=O)OCCN1CCN(CCOC(=O)/C=C/C(=O)OC)CC1", "note": "[Example 1, (E)-But-2-enedioic acid-2-{4-[2-((E)-3-methoxycarbonyl-acryloyloxy)-ethyl]-piperazin-1-yl}-ethyl ester methyl ester]", "values": [
      {"measurement": "hydrolysis to MMF (MMF release) compared with DMF", "result": "substantially the same hydrolysis to MMF than DMF"}
    ]}
  ]
}
